Experimental data published in patent publication US9321773B2, “Compounds” (Respivert Ltd, priority 2009, dated 2016).
pIC50: −log10 of the molar value. Read-outs that look alike come from different tables or passages of the source.

Legend:
[1] = system: PMA-differentiated U937 cells; assay: MTT Assay (cell viability); type: cell-based, Human; conditions: percentage loss of cell viability; for Cell Viability MTT Assay in D-U937 cells at 4 hr: 4 hr in 5% FCS; for Cell Viability MTT Assay in D-U937 cells at 24 hr: 24 hr in 10% FCS
Description: PMA-differentiated U937 cells were pre-incubated with compound for 4 hr in 5% FCS or 10% FCS for 24 hr. The supernatant was replaced with 200 μL of new media and 10 μL of MTT stock solution (5 mg/ml) added to each well. After 1 hr incubation, the media were removed, 200 μL of DMSO added to each well and the plates were shaken lightly for 1 hr prior to reading the absorbance at 550 nm. The percentage loss of cell viability was calculated for each well relative to vehicle (0.5% DMSO)-treatment (Table 3).

recombinant PI3 kinase γ = recombinant PI3 kinase γ (Homo sapiens (Human), UniProt P48736); assay: Enzyme Inhibition Assay (HTRF PI3K enzyme assay, TR-FRET); type: biochemical; conditions: for pIC50: activity range, read-out: PI3 Kinase Inhibition IC50 values at stated Isozyme γ
From the text: (§1) PI3 kinases catalyse the phosphorylation of phosphatidylinositol 4,5-biphosphate (PIP2) to phosphatidylinositol 3,4,5-triphosphate (PIP3) in the presence of ATP and Mg^2+ ions. The PIP3 product can be detected by displacement of biotin-PIP3 from energy transfer complexes consisting of europium labelled anti-GST monoclonal antibody, a GST-tagged Pleckstrin homology (PH) domain, biotinylated PIP3 and streptavidin-allophycocyanin (APC) by the time-resolved fluorescence resonance energy transfer (TR-FRET) (HTRF® PI3K enzyme assay, Millipore). […] The PIP3 product formed by PI3K activity displaces biotin-PIP3 from the complex and results in a loss of energy transfer (decreasing signal).
(§2) The compound to be tested was added, at the desired final concentrations, to a mixture of PIP2 substrate and recombinant PI3 kinase α, δ or γ enzymes (Millipore), and the mixture incubated for 2 hr at RT. […] A stopping solution containing biotinylated PIP3 and the detection mix containing the GST tagged GRP1 pleckstrin homology (PH) domain and fluorophores were then added and the mixture was incubated at RT for 15-18 hr, prior to detection in a fluorescence microplate reader (Varioskan® Flash, ThermoFisher Scientific).

recombinant PI3 kinase δ = recombinant PI3 kinase δ (Homo sapiens (Human), UniProt O00329); assay: as above; type: biochemical; conditions: for pIC50: activity range, read-out: PI3 Kinase Inhibition IC50 values at stated Isozyme δ
From the text: as §1, §2

recombinant PI3 kinase α = recombinant PI3 kinase α (Homo sapiens (Human), UniProt P42336); assay: as above; type: biochemical; conditions: for pIC50: activity range, read-out: PI3 Kinase Inhibition IC50 values at stated Isozyme α
From the text: as §1, §2

[2] = system: H2O2 induced pAkt in D-U937 cells; assay: PI3Kδ Cell Based Assay (H2O2 induced pAkt); conditions: Homo sapiens, dU937; for pIC50: activity range, D-U937 cells, read-out: Cellular Activity IC50 values (H2O2 induced pAkt D-U937 Cells)
Description: As a means of assessing PI3K 6 activation in response to stimuli, the phosphorylation status of the protein, Akt, a downstream product of PI3K6, signaling was determined. Human monocytic cells (U937 cells), were differentiated to macrophage-type cells by incubation with phorbol myristate acetate (PMA; 100 ng/mL) for 48 to 72 hr. […] The cells were washed with buffer (PBS containing 0.1% Triton X-100) and were incubated with blocking solution (1% BSA in PBS) for 1 hr and were then re-washed with buffer and incubated overnight with either anti-pAkt antibody or anti-pan-Akt antibody (both from Cell Signaling Technology). […] This reaction was stopped by addition of 100 μL of 1N H2SO4 solution. […] The ratio of pAkt signal to total Akt signal was used to quantitate the extent of PI3K δ activation. […] The IC50 values were calculated from the concentration-response curves generated by the serial dilutions of the test compounds (Table 3 and Table 4).

Chain of recombinant PI3 kinase γ (P48736 whole entry): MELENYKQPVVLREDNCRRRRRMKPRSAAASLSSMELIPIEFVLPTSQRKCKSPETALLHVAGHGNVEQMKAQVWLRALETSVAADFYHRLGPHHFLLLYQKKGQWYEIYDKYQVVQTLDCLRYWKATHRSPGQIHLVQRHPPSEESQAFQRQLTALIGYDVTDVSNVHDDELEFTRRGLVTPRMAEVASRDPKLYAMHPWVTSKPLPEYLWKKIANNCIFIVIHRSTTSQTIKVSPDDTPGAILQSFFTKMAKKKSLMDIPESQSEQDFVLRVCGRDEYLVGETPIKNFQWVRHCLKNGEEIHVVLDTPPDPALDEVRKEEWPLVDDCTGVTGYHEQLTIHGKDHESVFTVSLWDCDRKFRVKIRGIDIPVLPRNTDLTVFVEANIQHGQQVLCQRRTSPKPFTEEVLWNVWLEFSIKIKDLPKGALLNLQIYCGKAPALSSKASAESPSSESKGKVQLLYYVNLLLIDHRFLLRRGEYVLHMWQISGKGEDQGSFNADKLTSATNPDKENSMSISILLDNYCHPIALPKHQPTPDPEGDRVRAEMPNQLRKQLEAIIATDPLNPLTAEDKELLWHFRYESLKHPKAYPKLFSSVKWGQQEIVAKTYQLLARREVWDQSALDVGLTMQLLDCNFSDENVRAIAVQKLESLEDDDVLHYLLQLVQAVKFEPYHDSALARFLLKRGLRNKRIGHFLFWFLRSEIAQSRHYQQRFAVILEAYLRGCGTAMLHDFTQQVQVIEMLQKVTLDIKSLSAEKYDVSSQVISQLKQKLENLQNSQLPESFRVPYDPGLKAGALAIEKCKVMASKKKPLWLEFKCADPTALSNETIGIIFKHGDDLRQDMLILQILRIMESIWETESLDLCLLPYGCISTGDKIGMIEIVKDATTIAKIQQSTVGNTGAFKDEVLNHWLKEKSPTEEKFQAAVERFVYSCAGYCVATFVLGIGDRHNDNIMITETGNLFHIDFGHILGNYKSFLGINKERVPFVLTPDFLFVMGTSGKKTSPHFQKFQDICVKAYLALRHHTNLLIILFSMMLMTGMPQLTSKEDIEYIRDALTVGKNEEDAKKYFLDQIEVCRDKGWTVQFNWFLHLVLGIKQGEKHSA
Chain of recombinant PI3 kinase α (P42336 whole entry): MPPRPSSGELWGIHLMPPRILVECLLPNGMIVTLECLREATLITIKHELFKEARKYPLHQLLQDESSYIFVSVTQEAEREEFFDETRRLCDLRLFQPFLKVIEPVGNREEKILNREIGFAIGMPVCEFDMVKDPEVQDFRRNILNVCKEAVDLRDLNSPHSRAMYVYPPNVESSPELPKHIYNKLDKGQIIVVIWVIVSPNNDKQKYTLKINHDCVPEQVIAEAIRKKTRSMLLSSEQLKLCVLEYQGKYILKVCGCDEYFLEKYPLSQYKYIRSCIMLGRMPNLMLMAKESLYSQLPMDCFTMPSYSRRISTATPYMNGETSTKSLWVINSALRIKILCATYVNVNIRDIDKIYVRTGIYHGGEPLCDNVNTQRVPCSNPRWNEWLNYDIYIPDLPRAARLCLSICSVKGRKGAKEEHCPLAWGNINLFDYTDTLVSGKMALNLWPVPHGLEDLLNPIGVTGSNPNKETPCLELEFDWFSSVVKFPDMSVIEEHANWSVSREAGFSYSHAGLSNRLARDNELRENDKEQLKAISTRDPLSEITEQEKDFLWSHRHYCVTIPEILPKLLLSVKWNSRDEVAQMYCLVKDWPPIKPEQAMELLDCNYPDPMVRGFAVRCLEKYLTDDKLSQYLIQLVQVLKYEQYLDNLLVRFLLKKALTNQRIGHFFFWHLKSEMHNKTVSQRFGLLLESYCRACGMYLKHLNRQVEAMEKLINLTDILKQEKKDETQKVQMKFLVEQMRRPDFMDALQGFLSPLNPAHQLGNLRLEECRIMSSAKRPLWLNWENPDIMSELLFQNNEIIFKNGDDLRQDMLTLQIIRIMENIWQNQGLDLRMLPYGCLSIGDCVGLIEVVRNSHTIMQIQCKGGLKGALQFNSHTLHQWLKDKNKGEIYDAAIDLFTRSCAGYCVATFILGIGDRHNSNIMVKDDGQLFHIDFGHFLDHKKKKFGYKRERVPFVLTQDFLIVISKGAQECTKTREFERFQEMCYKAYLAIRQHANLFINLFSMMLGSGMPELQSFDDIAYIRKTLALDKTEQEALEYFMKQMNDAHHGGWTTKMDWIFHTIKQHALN
Chain of recombinant PI3 kinase α (P27986 whole entry partner): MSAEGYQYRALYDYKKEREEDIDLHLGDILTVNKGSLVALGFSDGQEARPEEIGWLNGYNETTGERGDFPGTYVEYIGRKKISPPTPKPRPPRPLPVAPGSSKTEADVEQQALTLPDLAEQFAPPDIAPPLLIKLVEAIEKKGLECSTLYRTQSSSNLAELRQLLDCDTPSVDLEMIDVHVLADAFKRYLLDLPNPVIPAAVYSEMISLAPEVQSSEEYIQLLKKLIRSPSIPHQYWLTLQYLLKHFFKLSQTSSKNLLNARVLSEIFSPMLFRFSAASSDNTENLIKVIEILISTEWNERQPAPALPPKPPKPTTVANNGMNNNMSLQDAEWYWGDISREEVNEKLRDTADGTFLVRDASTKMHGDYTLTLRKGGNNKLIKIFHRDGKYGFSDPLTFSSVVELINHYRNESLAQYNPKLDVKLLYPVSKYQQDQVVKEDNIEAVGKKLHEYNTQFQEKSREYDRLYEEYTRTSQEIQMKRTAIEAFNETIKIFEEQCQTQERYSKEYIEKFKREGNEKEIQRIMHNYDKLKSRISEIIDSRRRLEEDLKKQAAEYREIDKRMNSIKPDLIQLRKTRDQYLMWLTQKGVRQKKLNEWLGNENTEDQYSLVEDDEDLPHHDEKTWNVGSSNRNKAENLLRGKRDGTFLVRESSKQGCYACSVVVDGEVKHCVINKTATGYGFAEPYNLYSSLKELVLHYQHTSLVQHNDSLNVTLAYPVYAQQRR
Chain of recombinant PI3 kinase δ (O00329 whole entry): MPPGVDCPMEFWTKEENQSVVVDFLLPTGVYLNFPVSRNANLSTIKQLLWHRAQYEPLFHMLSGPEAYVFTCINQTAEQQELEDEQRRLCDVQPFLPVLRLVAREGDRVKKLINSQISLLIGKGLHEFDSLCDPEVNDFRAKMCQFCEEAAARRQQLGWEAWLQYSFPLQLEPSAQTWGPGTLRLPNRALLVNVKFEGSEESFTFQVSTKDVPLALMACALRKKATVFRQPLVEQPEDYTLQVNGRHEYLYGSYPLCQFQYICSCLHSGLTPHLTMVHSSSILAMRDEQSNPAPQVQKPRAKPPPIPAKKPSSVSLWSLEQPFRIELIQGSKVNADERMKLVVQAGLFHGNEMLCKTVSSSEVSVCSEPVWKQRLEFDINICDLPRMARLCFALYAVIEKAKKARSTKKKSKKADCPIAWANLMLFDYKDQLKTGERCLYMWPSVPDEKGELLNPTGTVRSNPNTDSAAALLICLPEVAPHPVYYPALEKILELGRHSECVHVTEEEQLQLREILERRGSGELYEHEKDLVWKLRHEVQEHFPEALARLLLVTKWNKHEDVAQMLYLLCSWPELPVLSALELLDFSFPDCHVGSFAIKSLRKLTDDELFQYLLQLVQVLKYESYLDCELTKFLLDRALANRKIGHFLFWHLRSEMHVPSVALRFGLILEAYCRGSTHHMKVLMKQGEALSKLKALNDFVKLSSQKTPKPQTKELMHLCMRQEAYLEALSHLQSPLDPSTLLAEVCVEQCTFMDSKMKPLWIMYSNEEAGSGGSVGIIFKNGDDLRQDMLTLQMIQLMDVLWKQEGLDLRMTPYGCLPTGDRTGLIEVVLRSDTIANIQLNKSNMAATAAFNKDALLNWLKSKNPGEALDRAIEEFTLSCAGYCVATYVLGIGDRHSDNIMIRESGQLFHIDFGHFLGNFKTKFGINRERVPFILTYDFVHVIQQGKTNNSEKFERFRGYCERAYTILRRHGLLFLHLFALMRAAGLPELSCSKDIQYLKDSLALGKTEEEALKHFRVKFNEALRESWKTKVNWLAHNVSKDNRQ
Chain of recombinant PI3 kinase δ (P27986 whole entry partner): as the sequence (P27986 whole entry partner) above

SMILES | Cell Viability MTT Assay in D-U937 cells at 4 hr [1] | Cell Viability MTT Assay in D-U937 cells at 24 hr [1] | pIC50 (recombinant PI3 kinase γ) | pIC50 (recombinant PI3 kinase δ) | pIC50 (recombinant PI3 kinase α) | pIC50 [2] | IC50 (recombinant PI3 kinase γ; read-out: PI3 Kinase Inhibition IC50 values at stated Isozyme (nM) γ) [nM] | IC50 (recombinant PI3 kinase δ; read-out: PI3 Kinase Inhibition IC50 values at stated Isozyme (nM) δ) [nM] | IC50 (recombinant PI3 kinase α; read-out: PI3 Kinase Inhibition IC50 values at stated Isozyme (nM) α) [nM] | IC50 ([2]; read-out: Cellular Activity IC50 values (H2O2 induced pAkt (nM) D-U937 Cells)) [nM]
COCCOCCOCC#Cc1cccc2nc(Cn3nc(-c4cccc(O)c4)c4c(N)ncnc43)n(Cc3ccccc3F)c(=O)c12 [Example 50, 2-((4-Amino-3-(3-hydroxyphenyl)-1H-pyrazolo[3,4-d]pyrimidin-1-yl)methyl)-3-(2-fluorobenzyl)-5-(3-(2-(2-methoxyethoxy)ethoxy)prop-1-ynyl)quinazolin-4(3H)-one] | − (− <30%) | − (− <30%) | 6.00 to 7.30 | > 7.30 | 6.00 to 7.30 | > 8.00 |  |  |  | 
CC(C)NC(=O)CCCC#Cc1cccc2nc(Cn3nc(-c4ccc(O)cc4)c4c(N)ncnc43)n(Cc3ccccc3Cl)c(=O)c12 [Example 86, 6-(2-((4-Amino-3-(4-hydroxyphenyl)-1H-pyrazolo[3,4-d]pyrimidin-1-yl)methyl)-3-(2-chlorobenzyl)-4-oxo-3,4-dihydroquinazolin-5-yl)-N-isopropylhex-5-ynamide] | − (− <30%) | − (− <30%) | > 7.30 | > 7.30 | > 7.30 | > 8.00 | 22 | 36 | 27 | 0.41
NC(=O)NCC#Cc1cccc2nc(Cn3nc(-c4ccc(O)cc4)c4c(N)ncnc43)n(Cc3ccccc3Cl)c(=O)c12 [Example 49, 1-(3-(2-((4-Amino-3-(4-hydroxyphenyl)-1H-pyrazolo[3,4-d]pyrimidin-1-yl)methyl)-3-(2-chlorobenzyl)-4-oxo-3,4-dihydroquinazolin-5-yl)prop-2-ynyl)urea] | − (− <30%) | − (− <30%) | 6.00 to 7.30 | > 7.30 | 6.00 to 7.30 | > 8.00 |  |  |  | 
C#Cc1cccc2nc(Cn3nc(-c4ccc(O)cc4)c4c(N)ncnc43)n(Cc3ccc(C#N)cc3)c(=O)c12 [Example 47, 4-((2-((4-Amino-3-(4-hydroxyphenyl)-1H-pyrazolo[3,4-d]pyrimidin-1-yl)methyl)-5-ethynyl-4-oxoquinazolin-3(4H)-yl)methyl)benzonitrile] | − (− <30%) | − (− <30%) | 6.00 to 7.30 | > 7.30 | 6.00 to 7.30 | > 8.00 |  |  |  | 
COCCN1CCN(C(=O)CCCC#Cc2cccc3nc(Cn4nc(-c5ccc(O)cc5)c5c(N)ncnc54)n(Cc4ccccc4Cl)c(=O)c23)CC1 [Example 77, 2-((4-Amino-3-(4-hydroxyphenyl)-1H-pyrazolo[3,4-d]pyrimidin-1-yl)methyl)-3-(2-chlorobenzyl)-5-(6-(4-(2-methoxyethyl)piperazin-1-yl)-6-oxohex-1-ynyl) quinazolin-4(3H)-one] | − (− <30%) | − (− <30%) | > 7.30 | > 7.30 | 6.00 to 7.30 | > 8.00 |  |  |  | 
C#Cc1cccc2nc(Cn3nc(-c4ccc(O)cc4)c4c(N)ncnc43)n(Cc3ccccc3)c(=O)c12 [Example 44, 2-((4-Amino-3-(4-hydroxyphenyl)-1H-pyrazolo[3,4-d]pyrimidin-1-yl)methyl)-3-benzyl-5-ethynylquinazolin-4(3H)-one] | − (− <30%) | − (− <30%) | 6.00 to 7.30 | > 7.30 | < 6.00 | > 8.00 |  |  |  | 
CN(C)CCNC(=O)CCCC#Cc1cccc2nc(Cn3nc(-c4ccc(O)cc4)c4c(N)ncnc43)n(Cc3ccccc3Cl)c(=O)c12 [Example 78, 6-(2-((4-Amino-3-(4-hydroxyphenyl)-1H-pyrazolo[3,4-d]pyrimidin-1-yl)methyl)-3-(2-chlorobenzyl)-4-oxo-3,4-dihydroquinazolin-5-yl)-N-(2-(dimethylamino)ethyl) hex-5-ynamide] | − (− <30%) | − (− <30%) | > 7.30 | > 7.30 | 6.00 to 7.30 | > 8.00 |  |  |  | 
COCCNC(=O)CCCC#Cc1cccc2nc(Cn3nc(-c4cccc(O)c4)c4c(N)ncnc43)n(Cc3ccccc3Cl)c(=O)c12 [Example 54, 6-(2-((4-Amino-3-(3-hydroxyphenyl)-1H-pyrazolo[3,4-d]pyrimidin-1-yl)methyl)-3-(2-chlorobenzyl)-4-oxo-3,4-dihydroquinazolin-5-yl)-N-(2-methoxyethyl)hex-5-ynamide] | − (− <30%) | − (− <30%) | > 7.30 | > 7.30 | > 7.30 | > 8.00 |  |  |  | 
Nc1ncnc2c1c(-c1cccc(O)c1)nn2Cc1nc2cccc(C#CCCCC(=O)N3CCOCC3)c2c(=O)n1Cc1ccc2occc2c1 [Example 67, 2-((4-Amino-3-(3-hydroxyphenyl)-1H-pyrazolo[3,4-d]pyrimidin-1-yl)methyl)-3-(benzofuran-5-ylmethyl)-5-(6-morpholino-6-oxohex-1-yn-1-yl)quinazolin-4(3H)-one] | − (− <30%) | − (− <30%) | > 7.30 | > 7.30 | 6.00 to 7.30 | > 8.00 |  |  |  | 
C#Cc1cccc2nc(Cn3nc(-c4ccc(F)c(O)c4)c4c(N)ncnc43)n(Cc3ccccc3Cl)c(=O)c12 [Example 51, 2-((4-Amino-3-(4-fluoro-3-hydroxyphenyl)-1H-pyrazolo [3,4-d]pyrimidin-1-yl)methyl)-3-(2-chlorobenzyl)-5-ethynylquinazolin-4(3H)-one] | − (− <30%) | − (− <30%) | 6.00 to 7.30 | > 7.30 | 6.00 to 7.30 | > 8.00 |  |  |  | 
Nc1ncnc2c1c(-c1cccc(O)c1)nn2Cc1nc2cccc(C#CCCCCC(=O)N3CCOCC3)c2c(=O)n1Cc1ccccc1Cl [Example 55, 2-((4-Amino-3-(3-hydroxyphenyl)-1H-pyrazolo[3,4-d]pyrimidin-1-yl)methyl)-3-(2-chlorobenzyl)-5-(7-morpholino-7-oxohept-1-yn-1-yl)quinazolin-4(3H)-one] | − (− <30%) | − (− <30%) | > 7.30 | > 7.30 | 6.00 to 7.30 | > 8.00 |  |  |  | 
COCC#Cc1cccc2nc(Cn3nc(-c4ccc(O)cc4)c4c(N)ncnc43)n(Cc3ccccc3Cl)c(=O)c12 [Example 28, 2-((4-Amino-3-(4-hydroxyphenyl)-1H-pyrazolo[3,4-d]pyrimidin-1-yl)methyl)-3-(2-chlorobenzyl)-5-(3-methoxyprop-1-ynyl)quinazolin-4(3H)-one] | − (− <30%) | − (− <30%) | 6.00 to 7.30 | > 7.30 | 6.00 to 7.30 | > 8.00 |  |  |  | 
CN(C)C1CCN(C(=O)CCCC#Cc2cccc3nc(Cn4nc(-c5ccc(O)cc5)c5c(N)ncnc54)n(Cc4ccccc4Cl)c(=O)c23)CC1 [Example 81, 2-((4-Amino-3-(4-hydroxyphenyl)-1H-pyrazolo[3,4-d]pyrimidin-1-yl)methyl)-3-(2-chlorobenzyl)-5-(6-(4-(dimethylamino)piperidin-1-yl)-6-oxohex-1-ynyl) quinazolin-4(3H)-one] | − (− <30%) | − (− <30%) | 6.00 to 7.30 | > 7.30 | 6.00 to 7.30 | > 8.00 |  |  |  | 
